According to PMC6832651, “Design, Synthesis and Investigation of the Potential Anti-Inflammatory Activity of 7-O-Amide Hesperetin Derivatives” (Molecules, 2019):
Where two headings read alike, the source gives them in different places.

Legend:
RAW264.7 cells = experiment: MTT cell viability / cytotoxicity assay; assay type: cell-based, mouse; conditions: concentrations up to 100 μM, MTT (Figure 1)
Experimental: Compounds 4a–4l, 5a–5b, 6a–6f, 7a–7c were assessed for toxicity against RAW264.7 cell lines using the 3-(4,5-dimethylthiazol-2-yl)-2,5-diphenyltetrazolium bromide (MTT) assay. After 40 μM treatment, the cell viability of all of the hesperetin derivatives was more than 90%. It was thus shown that the anti-inflammatory activities of hesperetin derivatives were not due to their cytotoxicity. In subsequent anti-inflammation studies, the highest concentration of hesperetin derivatives was set below 40 µM.
Cytotoxicity and cell viability was evaluated by a MTT (Sigma, Shanghai, China) assay using a method similar to the one described above. Cells were inoculated at a density of 7.0 × 10^3 cells/well into 96-well plate and cultured at 37 °C for 12 h. […] After that, MTT dissolved in phosphate buffered saline (PBS) and was added to the culture medium to reach a final concentration of 0.5 mg/mL and incubated for another 4 h. The media was removed and 200 μL of DMSO was added and incubated for 30 min. Finally, the cell viability (%) was calculated based on the absorbance measured at the wavelength of 490 nm and measured using a microplate reader (Synergy HTX, Biotek, Winowski, VT, USA). The cell viability were calculated by GraphPad Prism 6 (GraphPad, San Diego, CA, USA).

[1] = system: LPS-induced NO production in RAW264.7 cells; experiment: Inhibition of LPS-induced NO production (Griess reagent); assay type: cell-based, mouse
Experimental: NO is an important inflammatory mediator and is overproduced and secreted out of mouse macrophages in response to bacterial lipopolysaccharide. To evaluate the anti-inflammatory activity of hesperetin derivatives, the secretion level of NO was detected in the medium of RAW264.7 cells after LPS stimulated with Griess reagent. Before the cells were treated with LPS (1 μg/mL) for 24 h, pretreatment with the compounds for 1 hour. […] All hesperetin derivatives could decrease the release of NO induced by LPS. […] While extended the length of the amide side chain and the inhibitory activities increased (4d > 4c > 4a; 4e > 4b). […] On the other hand, the cavity was medium-sized, large enough to accommodate cyclopentyl and propyl groups, but not enough to accommodate cyclohexyl and butyl ones (4a < 4b < 4d > 4f; 4k > 4l).
Nitrite levels were determined using the Griess method for NO has a short half-life and is oxidized to stable nitrite. RAW 264.7 cells were plated at a density of 2 × 10^5 per well in a 24-well culture plate and incubated in a 37 °C humidified incubator (5% CO2). After overnight Cultured, discarded the supernatant, added pre-configured compounds of different concentrations to the 24-well plate, and added the same one-thousandth of the DMSO solvent as the control to the experimental group for 1 h. Then LPS was added to experimental and model groups at a concentration of […] for 24 h compared to vehicle control. Following treatment, media was collected and centrifuged at 2000 rpm for 5 min to remove cellular debris. The medium from treated cells was removed and placed into a 96-well plate (50 µL per well) and was measured in culture supernatant using Griess reagent at 540 nm. The IC50 values of compounds were calculated by SPSS23.

TNF-α = TNF-α level in medium of LPS-induced RAW264.7 cells (ELISA); assay type: cell-based, mouse; conditions: 10 μM compound (Figure 2A-C)
Text: (§1) When inflammation occurs, LPS-activated macrophages produce a variety of inflammatory cytokines, including TNF-α, interleukins (ILs), and nitric oxide (NO), which show a host shielding effect and also accelerate the occurrence of the inflammatory response during inflammatory situations. To evaluate the anti-inflammatory activity of hesperetin derivatives, the levels of TNF-α, IL-6 and IL-1β in the medium of LPS-induced macrophage cells were detected by enzyme linked immunosorbent assay (ELISA). […] Later, we will select one of them as lead compound and modify the structure at the 3’-OH, 5-OH and 4-carbonyl positions. […] Compounds 4d (MW = 401) and 4k (MW = 427) have similar structures and should have the same mechanism. Therefore, compound 4d with lower molecular weight was selected to further explore the mechanism(s) of the anti-inflammatory effect.
(§2) RAW264.7 cells (2 × 10^5 cells/well) were cultured in 24-well plate and pretreated with 10 μM of compounds for 1 h. And then stimulated with LPS, […], for 24 h. The cell culture supernatant were collected and the levels of TNF-α, IL-6 and IL-1β were determined using the ELISA kit (Elabscience, Wuhan, China). The optical density (OD) was measured at 540 nm. The results were analyzed using Origin Pro 8 (OriginLab, Northampton, MA, USA).

IL-6 = IL-6 level in medium of LPS-induced RAW264.7 cells (ELISA); assay type: cell-based, mouse; conditions: 10 μM compound (Figure 2A-C)
Text: as §1, §2

IL-1β = IL-1β level in medium of LPS-induced RAW264.7 cells (ELISA); assay type: cell-based, mouse; conditions: 10 μM compound (Figure 2A-C)
Text: as §1, §2

iNOS = experiment: Western blotting of iNOS expression in LPS-induced RAW264.7 cells; assay type: cell-based, mouse; conditions: LPS 24 h, compound 5, 10, 20 μM (Figure 3)
Experimental: (§3) In the process of inflammation, inducible nitric oxide synthase enzymes (iNOS) are induced to overexpression in inflammatory cells when exposed to pro-inflammatory cytokines, which further leads to excessive production of NO. The inhibition of NO production by compound 4d may be correlated with its suppressive effect on LPS-induced iNOS. Thus, the inhibitory effects of compound 4d on LPS-mediated expressions of iNOS were analyzed by western blotting. Nitric oxide synthase (iNOS) protein levels were analyzed after exposure to LPS for 24 h in the presence or absence of compound 4d (5, 10, 20 μM). […] Cyclooxygenase-2 (COX-2) is an important indicator of anti-inflammatory inhibitors, maintaining a low level in normal tissues. […] Bay 11-7082 (5 μM) used as a positive control.
(§4) After the treatment with LPS ([…]) in the presence different concentration gradient or absence of compounds, removed culture supernatants, and cells were collected and lysed with RIPA lysis buffer (Beyotime, Shanghai, China) and phosphatase inhibitors (Beibokit, Bestbio, Shanghai, China). After centrifugation (4 °C, 30 min, 12,000 rpm, Beckman Coulter, Inc., Fullerton, CA, USA), the total protein concentration was determined using BCA Protein Assay Kit (Beyotime, Shanghai, China). […]

COX-2 = experiment: Western blotting of COX-2 expression in LPS-induced RAW264.7 cells; assay type: cell-based, mouse; conditions: compound 5, 10, 20 μM (Figure 3)
Experimental: as §3, §4

NF-κB signal pathway = experiment: Western blotting of NF-κB signal pathway in LPS-induced RAW264.7 cells; assay type: cell-based, mouse
Text: Stimulation with LPS leads to the activation of nuclear factor-kappa B (NF-κB), which is a well-known transcription factor that positively regulates inflammation. When NF-κB activation is stimulated by LPS, inhibitor of NF-κB (IκB) protein phosphorylated and degraded frees NF-κB p65 subunit from sequestration, allowing it to translocate to the nucleus, bind to target promoters, and turn on the transcriptions of inflammation genes including TNF-α and IL-6. Therefore, Western blotting was used to examine the effects of compound 4d on LPS induced transcriptional activity of NF-κB in RAW264.7 cells.
After the treatment with LPS ([…]) in the presence different concentration gradient or absence of compounds, removed culture supernatants, and cells were collected and lysed with RIPA lysis buffer (Beyotime, Shanghai, China) and phosphatase inhibitors (Beibokit, Bestbio, Shanghai, China). After centrifugation (4 °C, 30 min, 12,000 rpm, Beckman Coulter, Inc., Fullerton, CA, USA), the total protein concentration was determined using BCA Protein Assay Kit (Beyotime, Shanghai, China). Lysates containing […] of total proteins were fractionated on SDS polyacrylamide gel and transferred to a polyvinylidene difluoride membranes (PVDF) (Merck Millipore, Tullagreen Carrigtwohill, Ireland). Membranes were blocked with 5% skim milk or 3% BSA (Albumin Bovine V, Sigma) in TBST and incubated at 4 °C overnight with their respective primary antibody: β-actin (1:1000 dilution; Abcam, Cambridge, MA, USA), iNOS (1:1000 dilution; Abcam, Cambridge, MA, USA), COX-2 (1:1000 dilution; CST, Danvers, MA, USA ), NF-κB (1:1000 dilution; CST, Danvers, MA, USA). After washing three times with TBST, membranes were incubated with secondary antibody for 1 h in room temperature on the shaker. Protein bands were visualized by the ultra-sensitive enhanced chemiluminescent (ECL) substrate (ECL-plus, Thermo Scientific, Rockford, IL, USA), after washing three times with TBST [34].

[2] = system: LPS-induced NO production in RAW264.7 cells; experiment: Inhibition of LPS-induced NO production (Griess reagent); assay type: cell-based; conditions: Mus musculus, 10 μM compound, 1 h pretreatment, then LPS (1 μg/mL) 24 h, mean ± SD (n = 3)
[3] = set-up: method as in PMID 17047689; conditions: cited from earlier work
[4] = set-up: method as in PMID 19629709; conditions: cited from earlier work

For `CCCNC(=O)COc1cc(O)c2c(c1)O[C@H](c1ccc(OC)c(O)c1)CC2=O` [Compound 4d, 7-O-(2-(Propylamino)-2-oxoethyl)hesperetin], the cytotoxicity (RAW264.7 cells) was “no significant cytotoxicity”, the “LPS-induced NO release” value ([1]; LPS-stimulated, result in words) was “significantly alleviated the increase of LPS-induced NO release” and the IC50 ([1]; Mus musculus, 1 h pretreatment, then LPS 24 h, mean ± SD (n = 3)) was 19.3 ± 0.47 µM. For the same compound, the “inhibitory effect on TNF-α production” value (TNF-α) was “greater inhibitory effects than indomethacin (Ind) and celecoxib (Cel)”, the “inhibitory effect on IL-6 production” value (IL-6) was “greater inhibitory effects than indomethacin (Ind) and celecoxib (Cel)” and the “inhibitory effect on IL-1β production” value (IL-1β) was “greater inhibitory effects than indomethacin (Ind) and celecoxib (Cel)”. For the same compound, the “expression level of iNOS” value (iNOS) was “significantly decreased the expression level of iNOS induced by LPS in a dose-dependent manner”, the “expression level of COX-2” value (COX-2) was “capable of reducing the expression level of COX-2 in a concentration-dependent way” and the “phosphorylation of IκBα” value (NF-κB signal pathway; LPS-induced RAW264.7 cells (Figure 4)) was “markedly decreased”. For the same compound, the “protein expressions of NF-κB and IκBα” value (NF-κB signal pathway; LPS-induced RAW264.7 cells, compared with the LPS induced group (Figure 4)) was “down-regulated”, the “LPS-induced NF-κB p65 nuclear translocation” value (NF-κB signal pathway; RAW264.7 cells, pretreatment 5, 10, 20 µM) was “concentration-dependently reversed” and the melting point was 135.5 to 137.7 °C. It also gave an inhibition at 10 µM [2] of 38.2 ± 1.13%.

For `COc1ccc([C@@H]2CC(=O)c3c(O)cc(O)cc3O2)cc1O` [hesperetin], the “elimination half-life (t1/2)” value [3] is listed as 1.78 h and the “elimination half-life (t1/2)” value [4] is listed as 3.12 h.
